{
  "source": "patent US10189803B2",
  "about": "“Synthesis of therapeutic and diagnostic drugs centered on regioselective and stereoselective ring opening of aziridinium ions” (ILLINOIS INSTITUTE OF TECHNOLOGY, priority 2008, dated 2019)",
  "key": {"Hela cells": {"test_system": "Hela cells", "experiment": "Iron saturation experiment, Hela cell growth (MTS)", "format": "cell-based, Human", "procedure": "Cytotoxicity of the new chelators was measured in the HeLa and HT29 cancer cells and compared to that of the clinically used iron chelators DFO and DTPA. […] The preliminary cell culture experiments were performed to see ifNETA is an effective cytotoxic agent. […] In order to investigate the effect of the chelators on the cellular growth, the Hela cancer cells saturated with Fe(III)-citrate (50 μM) were incubated with each of the chelators (50 μM).\nIron Saturation Experiment Hela Cells were inoculated onto 96-well plates at density of 2,000 per well in 0.1 mL complete medium and incubated for 24 h. […] Control samples containing no ferric citriate were also tested. […] After the incubation, cells proliferation rates were evaluated by MTS assay."}, "HT29 cells": {"test_system": "HT29 cells", "experiment": "Antiproliferative activity, MTS assay, HT29 cells", "format": "cell-based, Human", "conditions": "72 h incubation", "procedure": "Cell culture Human cervix HeLa cell line was obtained from ATCC (Rockville, Md.) and cultured in minimum essential medium (MEM) with L-glutamine (2 mM), Earle's BSS and sodium bicarbonate (1.5 g/L), supplemented with 10% fetal bovine serum (FBS), non-essential amino acids (0.1 mM), sodium pyruvate (1 mM) and antibiotic/antimycotic solution in a humidified atmosphere with 5% CO2 at 37° C. […] Lung fibroblast MRC-5 cell line was obtained from ATCC (Rockville, Md.) and cultured in ATCC formulated EMEM, supplemented with 10% fetal bovine serum (FBS) in a humidified atmosphere with 5% CO2 at 37° C.\n(§1) Antiproliferative Activity. Cells were seeded onto 96-well plate at density of 2,000 cells for Hela cells or 5,000 cells for HT29 cells or 5,000 cells for MRC-5 per well in 0.1 mL complete medium and allowed to attach for 24 h. Varying concentrations of the test compounds in the final volume of 0.1 mL complete medium were then added in at least five series dilutions and incubated for 72 h. To measure cell proliferation, the Cell Titer 96 aqueous nonreactive cell proliferation assay (Promega Life Sciences, Madison, Wis.) was used according to the manufacturer's instructions. Briefly, MTS (2 mg/mL) and PMS (0.92 mg/ml) were mixed in a ratio of 20:1. An aliquot (20 μL) of the MTS/PMS mixture was added into each well, and the plate was incubated for 3 h at 37° C. Optical absorbance at 490 nm was then recorded with an enzyme-linked immunosorbent assay (ELISA) microtiter plate reader (Biotek). Each experiment was done at least in triplicate. Antiproliferative activity of the test compounds was expressed as the fraction of optical densities of treated the cells relative to the untreated solvent controls.^31 The data were plotted in GraphPad Prizm 3.0. Nonlinear regression analysis was used to determine IC50 values.\nCell culture. Human cervix HeLa cell line was obtained from ATCC (Rockville, Md.) and cultured in minimum essential medium (MEM) with L-glutamine (2 mM), Earle's BSS and sodium bicarbonate (1.5 g/L), supplemented with 10% fetal bovine serum (FBS), non-essential amino acids (0.1 mM), sodium pyruvate (1 mM) and antibiotic/antimycotic solution in a humidified atmosphere with 5% CO2 at 37° C.\nas §1, with “activity.” for “Activity.”, “cells” for “cells or 5,000 cells for MRC-5”, “controls.” for “controls.^31”"}, "[1]": {"experiment": "In vitro serum stability of radiolabeled C-NE3TA complexes in human serum (SE-HPLC)", "format": "in vitro ADME", "procedure": "C-NE3TA was radiolabeled with ^90Y, ^177Lu, ^203Pb, ^205/6Bi, or ^153Gd as previously described (Chong, H. S.; Milenic, D. E.; Garmestani, K.; Brady, E. D.; Arora, H.; Pfiester, C.; Brechbiel, M. W., Nucl. Med. Biol. 2006, 33, 459-67; Chong H S, Garmestani K, Bryant Jr., L H Milenic D E, Overstreet T, Birch N, Le N, Brady E D, Brechbiel M W. J. Med. Chem. 2006, 49, 2055-2062). In vitro serum stability of the radiolabeled complexes purified via ion-exchange chromatography was performed to determine if C-NE3TA labeled with the radioisotopes remained stable without transchelation or loss of their respective radionuclide in human serum. This was assessed by measuring the transfer of radionuclide from the complex to serum proteins over the course of 11 days.\nIn vitro stability of the radiolabeled metal complexes. The stability of the purified radiolabeled complexes was evaluated in human serum (Gemini Bioproducts, Woodland, Calif.) for up to 11 days. The serum stability of the radiolabeled complexes was assessed by measuring the transfer of the radionuclide from each complex to serum proteins using SE-HPLC methods. Radiolabeled complexes were diluted to an appropriate volume that allowed for preparation of multiple samples containing 5-10 μCi and were filter-sterilized using a Millex-GV 0.22 μm filter. This stock solution was then mixed with 1400 μL of sterile normal human serum. Aliquots (200 μL) were drawn and separated into individual tubes for subsequent analysis using aseptic technique. The samples were incubated at 37° C., and at designated intervals, subjected to analysis by SE-HPLC. Samples were loaded onto the HPLC and eluted with PBS, pH 7.4 isocratically at 1 mL/min. […] Radioactivity associated with a transfer to serum proteins generally appeared at ˜6 min."}, "[2]": {"experiment": "In vitro serum stability of 205/6Bi-DEPA in human serum (SE-HPLC)", "format": "in vitro ADME", "design": "Radiolabled Complex, in vitro serum stability (Table 1): unit not given here", "conditions": "for Radiolabled Complex, in vitro serum stability (Table 1): 37° C.", "procedure": "The new ligand DEPA was radiolabeled with ^177Lu and ^205/6Bi (a surrogate of ^212Bi and ^213Bi) and the corresponding radiolabeled complexes were evaluated for in vitro serum stability as described previously. For comparison, DOTA was also radiolabeled with ^177Lu. DEPA and DOTA (0.25 M NH4OAc buffer, pH 4.0) was radiolabeled with ^177Lu at 45° C. for 0.5 h to afford ^177Lu-DEPA (Rf=0.6) and ^177Lu-DOTA (Rf=0.4) in the respective radiochemical yield of 90% and 95% as determined by radio-TLC. DEPA (0.25 M NH4OAc buffer, pH 5.0) was successfully radiolabeled with ^205/6Bi at room temperature for 1 h to afford ^205/6Bi-DEPA in 96% yield (radio-TLC). ^177Lu-DOTA, 177Lu-DEPA, and ^205/6Bi-DEPA formed were purified from unbound ^205/6Bi by ion-exchange chromatography using a Chelex-100 column (1 mL volume bed, 100-200 mesh, Na^+ form, Bio-Rad, Richmond, Calif.) eluted with PBS (pH 7.4). In vitro serum stability of the purified radiolabeled complexes was performed to determine if DEPA or DOTA radiolabeled with ^177Lu or ^205/6Bi remained stable without loss of the radionuclide in human serum. This was assessed by measuring the transfer of radionuclide from the complex to serum proteins. […] However, ˜10% of the radioactivity was released from ^177Lu-DOTA over 4 days.\nIn vitro serum stability of the radiolabeled metal complexes. An aliquot of 3.7 MBq of the purified ^177Lu-labeled ligands was added to 0.5 mL of mouse serum (Sigma, St. Louis, Mo.) and 0.1% NaN3. The resulting mixture was incubated at 37° C. for 96 h. Aliquots of 2 μL of the resulting mixture were analyzed by radio-TLC and HPLC at different time points, 0, 0.25, 0.5, 1, 2, 4, 6, 24, 48, and 96 h of incubation. The stability of purified ^205/6Bi-DEPA was evaluated in human serum (Gemini Bioproducts, Woodland, Calif.) for 14 days by measuring the transfer of the radionuclide from the complex to serum proteins as monitored by SE-HPLC. Radiolabeled complexes were diluted to an appropriate volume that allowed for preparation of multiple samples containing 5-10 μCi and filter-sterilized using a Millex-GV 0.22 μm filter. 140 μL of this stock solution was then mixed with 1400 μL of sterile normal human serum or saline. Aliquots (200 μL) were drawn and separated into individual tubes for subsequent analysis using aseptic technique. The samples were incubated at 37° C., and at designated intervals, subjected to analysis by SE-HPLC. Samples were loaded onto the HPLC and eluted with PBS, pH 7.4 isocratically at 1 mL/min. […] Radioactivity associated with a transfer to serum proteins generally appeared between ˜4.5-8 min."}, "[3]": {"experiment": "Biodistribution of 205/6Bi-DEPA in normal athymic mice", "format": "in vivo", "procedure": "Based on the promising data obtained from the AAIII based spectroscopic complexation kinetics and serum stability experiments, the stability of ^205/6Bi-DEPA was further evaluated by performing a biodistribution study in normal athymic mice as described previously. Blood levels and organ uptake of the radiolabeled complexes in mice were measured at five time points, 0.5, 1, 4, 8, and 24 h post-injection of ^205/6Bi-DEPA. […] Radioactivity that was detected in the blood and the organs was less than 2.44% ID/g at all points. At 24 h post injection, the % ID/g in the kidneys and spleen was 0.36±0.03% and 0.39±0.07%, respectively, which was slightly higher than that observed in other organs."}},
  "note": "“Also recorded” adds a separate entry of the source.",
  "data": [
    {"smiles": "O=C(O)CN1CCN(CCN(CC(=O)O)CC(=O)O)CCN(CC(=O)O)CC1", "note": "[NETA]", "values": [
      {"measurement": "anti-proliferative activity compared to DFO", "setting": "Hela cells; 50 μM, HeLa", "result": "three-fold increased anti-proliferative activity compared to DFO"},
      {"measurement": "effect on Hela cells saturated with Fe(III)-citrate (in words)", "setting": "Hela cells; chelator 50 μM, Fe(III)-citrate 50 μM", "result": "almost no anti-proliferative activity"},
      {"measurement": "HeLa cancer cells died", "setting": "Hela cells; free ligand 50 μM, no ferric citrate", "result": "~80", "unit": "%"},
      {"measurement": "IC50", "setting": "HT29 cells", "result": "7.3 ± 1.5", "unit": "µM"}
    ]},
    {"smiles": "O=C(O)CNC(Cc1ccc([N+](=O)[O-])cc1)CN1CCN(CC(=O)O)CCN(CC(=O)O)CC1.[203Pb]", "note": "(centres unmarked) [^203Pb-C-NE3TA]", "values": [
      {"measurement": "stability in human serum (in words)", "setting": "[1]; 37° C., up to 11 days", "result": "no measurable loss of radioactivity"},
      {"measurement": "radionuclide dissociated from the complex", "setting": "[1]; in 1 day", "result": "~40", "unit": "%"}
    ]},
    {"smiles": "O=C([O-])CN1CCN(CCN(CC(=O)[O-])CC(=O)[O-])CCN(CC(=O)[O-])CCN(CC(=O)[O-])CC1.[Bi+3]", "note": "[^205/6Bi-DEPA]", "values": [
      {"measurement": "Radiolabled Complex, in vitro serum stability (Table 1)", "setting": "[2]; 0 h", "result": 100},
      {"measurement": "Radiolabled Complex, in vitro serum stability (Table 1)", "setting": "[2]; 0.5 h", "result": 100},
      {"measurement": "Radiolabled Complex, in vitro serum stability (Table 1)", "setting": "[2]; 1 h", "result": 100},
      {"measurement": "Radiolabled Complex, in vitro serum stability (Table 1)", "setting": "[2]; 2 h", "result": 100},
      {"measurement": "Radiolabled Complex, in vitro serum stability (Table 1)", "setting": "[2]; 4 h", "result": 100},
      {"measurement": "Radiolabled Complex, in vitro serum stability (Table 1)", "setting": "[2]; 6 h", "result": 100},
      {"measurement": "Radiolabled Complex, in vitro serum stability (Table 1)", "setting": "[2]; 24 h", "result": 100},
      {"measurement": "Radiolabled Complex, in vitro serum stability (Table 1)", "setting": "[2]; 48 h", "result": 100},
      {"measurement": "Radiolabled Complex, in vitro serum stability (Table 1)", "setting": "[2]; 96 h", "result": 100},
      {"measurement": "Radiolabled Complex, in vitro serum stability (Table 1)", "setting": "[2]; 120 h", "result": 100},
      {"measurement": "Radiolabled Complex, in vitro serum stability (Table 1)", "setting": "[2]; 192 h", "result": 100},
      {"measurement": "Radiolabled Complex, in vitro serum stability (Table 1)", "setting": "[2]; 288 h", "result": 100},
      {"measurement": "Radiolabled Complex, in vitro serum stability (Table 1)", "setting": "[2]; 336 h", "result": 100},
      {"measurement": "serum stability of 205/6Bi complex (in words)", "setting": "[2]; 14 days", "result": "no radioactivity was released over 14 days; also recorded: very stable in human serum for 2 weeks"},
      {"measurement": "bone accumulation of the radioactivity", "setting": "[3]; 0.5 h", "result": "2.02±0.96", "unit": "% ID/gm"},
      {"measurement": "bone accumulation of the radioactivity", "setting": "[3]; 1 h", "result": "0.38±0.09", "unit": "% ID/gm"},
      {"measurement": "% ID/g in the kidneys", "setting": "[3]; 24 h post injection", "result": "0.36±0.03", "unit": "% ID/g"},
      {"measurement": "% ID/g in the spleen", "setting": "[3]; 24 h post injection", "result": "0.39±0.07", "unit": "% ID/g"},
      {"measurement": "Radioactivity detected in the blood and the organs", "setting": "[3]; all time points, 0.5-24 h post-injection", "result": "less than 2.44 % ID/g"},
      {"measurement": "in vivo stability and clearance (in words)", "setting": "[3]; normal athymic mice", "result": "essentially inert in vivo and rapidly cleared from the body"}
    ]}
  ]
}
